From US5550109A, “Inducible defensin peptide from mammalian epithelia” (priority 1994, dated 1996)
Bridges are numbered along the chain shown (N, C = ends). Where no end group is shown, it is not given here. [ ]: non-standard residue; d: D form. pGlu = O=C1CC[C@@H](C(=O)O)N1

How the values were obtained:
Assay in all cases: Minimum inhibitory concentration, 96 well microtitre plate
Type in all cases: cell-based
Candida albicans (14053) = conditions: Candida albicans (ATCC 14053); 1/4 strength TSB, 1×10^5 /ml
Method: (§1) Antimicrobial activity was determined during the purification process. Approximately 2.5 ml fractions from the P-30 gel filtration column were assessed after drawing fractions and taking an aliquot of the fraction and spotting that fraction on a radial diffusion plate as described by Zasloff, M. (Proc. Natl. Acad. Sci USA 84: 5449-5453, 1987) against E. coli D31 or fungal pathogens such as Candida albicans, Candida tropicalis, or Staphylococcus aureus. (See also, Zasloff et al., Proc. Natl. Acad. Sci. USA 85: 910-913, 1988.) (FIGS. 1B and 1C.) Briefly, the minimal inhibitory concentrations (MIC's) were assessed using a 96 well microtitre plate (Corning Glass Works, Corning, N.Y.). Microorganisms were grown in log phase at 1/4 strength tryptics soy broth (TSB) at a density of 1×10^5 /ml. The assays used 1/4 strength TSB. For each organism, dilutions of peptide were made ranging from >500 μg/ml to 1 μg/ml using 1/4 strength TSB as a dilution buffer. Zones of bacterial growth or lack of growth were assessed under the microscope. MIC's were calculated based the lowest concentration of peptide that inhibited growth.

[1] = test system: Candida tropicalis (13803); conditions: Candida tropicalis (ATCC 13803); 1/4 strength TSB, 1×10^5 /ml
Method: as §1

Escherichia coli (D31) = conditions: 1/4 strength TSB, 1×10^5 /ml
Method: as §1

[2] = test system: Pseudomonas aeruginosa (27853); conditions: Pseudomonas aeruginosa (ATCC 27853); 1/4 strength TSB, 1×10^5 /ml
Method: as §1

[3] = test system: Staphylococcus aureus (29213); conditions: Staphylococcus aureus (ATCC 29213); 1/4 strength TSB, 1×10^5 /ml
Method: as §1

Substance	Minimum Inhibitory Concentration (Candida albicans (14053)) [µg/mL]	Minimum Inhibitory Concentration [1] [µg/mL]	Minimum Inhibitory Concentration (Escherichia coli (D31)) [µg/mL]	Minimum Inhibitory Concentration [2] [µg/mL]	Minimum Inhibitory Concentration [3] [µg/mL]
Magainin II-amide	50 to 100	13 to 25	13 to 25	13 to 25	50 to 100
[pGlu]GVRNSQSCRRNKGICVPIRCPGSMRQIGTCLGAQVKCCRRK (disulfide 9-38, 16-31, 21-39) [LAP, lingual antimicrobial peptide]	32 to 63	16 to 32	16 to 32	63 to 125	63 to 125
